Experimental data published in patent US20190263796A1, “LIM KINASE INHIBITORS, PHARMACEUTICAL COMPOSITION AND METHOD OF USE IN LIMK-MEDIATED DISEASES” (CELLIPSE, priority 2016, published 2019).

How the values were obtained:
Type in all cases: biochemical
Details in all cases: residual activity, 5 μM inhibitor, Km ATP
cKit(h) = target: T1, cKit(h) (Homo sapiens, UniProt P10721); experiment: KinaseProfiler panel: cKit(h)
T1 construct: purchased Merck-Millipore (KinaseProfiler panel service)
Experimental: (§1) Kinase selectivity was performed on a panel of 58 recombinant protein kinases. The assays were performed in the presence of 5 μM inhibitor at the respective Km ATP for each kinase, using the KinaseProfiler panel service (Merck-Millipore). Residual activity measured in the presence of […] inhibitor is expressed as the percent of activity determined in the absence of inhibitor.

EGFR(h) = target: T2, EGFR(h) (Homo sapiens, UniProt P00533); experiment: KinaseProfiler panel: EGFR(h)
T2 construct: purchased Merck-Millipore (KinaseProfiler panel service)
T2 sequence (P00533 25-1210): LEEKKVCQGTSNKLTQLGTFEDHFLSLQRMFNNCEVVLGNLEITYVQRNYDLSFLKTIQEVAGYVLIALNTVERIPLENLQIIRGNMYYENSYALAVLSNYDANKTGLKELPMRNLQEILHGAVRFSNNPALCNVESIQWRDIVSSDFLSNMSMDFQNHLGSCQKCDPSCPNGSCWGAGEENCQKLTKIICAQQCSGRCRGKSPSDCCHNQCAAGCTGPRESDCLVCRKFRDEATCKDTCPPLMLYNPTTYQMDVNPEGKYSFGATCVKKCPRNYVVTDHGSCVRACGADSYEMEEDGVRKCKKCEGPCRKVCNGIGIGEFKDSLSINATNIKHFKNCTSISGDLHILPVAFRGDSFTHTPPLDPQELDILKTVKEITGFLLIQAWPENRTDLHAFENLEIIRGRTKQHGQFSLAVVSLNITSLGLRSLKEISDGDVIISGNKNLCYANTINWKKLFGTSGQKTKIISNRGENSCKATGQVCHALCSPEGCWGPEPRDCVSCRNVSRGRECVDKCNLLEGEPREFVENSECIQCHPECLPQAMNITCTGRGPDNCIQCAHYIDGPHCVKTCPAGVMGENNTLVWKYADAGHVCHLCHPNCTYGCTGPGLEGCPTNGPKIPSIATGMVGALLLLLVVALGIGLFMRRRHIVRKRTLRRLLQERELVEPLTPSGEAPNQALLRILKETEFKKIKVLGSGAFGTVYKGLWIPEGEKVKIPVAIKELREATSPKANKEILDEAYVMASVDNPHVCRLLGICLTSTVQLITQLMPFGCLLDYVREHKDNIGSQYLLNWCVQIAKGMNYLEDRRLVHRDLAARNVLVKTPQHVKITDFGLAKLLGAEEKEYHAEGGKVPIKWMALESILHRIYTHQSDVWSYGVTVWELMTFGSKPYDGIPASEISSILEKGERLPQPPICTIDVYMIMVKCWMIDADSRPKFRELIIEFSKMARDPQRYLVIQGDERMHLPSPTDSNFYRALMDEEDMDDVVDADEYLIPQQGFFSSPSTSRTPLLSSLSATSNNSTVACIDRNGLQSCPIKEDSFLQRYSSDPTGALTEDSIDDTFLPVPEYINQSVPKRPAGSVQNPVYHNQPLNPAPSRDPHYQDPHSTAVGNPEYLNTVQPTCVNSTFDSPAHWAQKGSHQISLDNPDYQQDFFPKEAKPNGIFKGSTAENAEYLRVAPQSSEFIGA
Experimental: as §1

MEK1(h) = target: T3, MEK1(h) (Homo sapiens, UniProt Q02750); experiment: KinaseProfiler panel: MEK1(h)
T3 construct: purchased Merck-Millipore (KinaseProfiler panel service)
T3 sequence (Q02750 whole entry): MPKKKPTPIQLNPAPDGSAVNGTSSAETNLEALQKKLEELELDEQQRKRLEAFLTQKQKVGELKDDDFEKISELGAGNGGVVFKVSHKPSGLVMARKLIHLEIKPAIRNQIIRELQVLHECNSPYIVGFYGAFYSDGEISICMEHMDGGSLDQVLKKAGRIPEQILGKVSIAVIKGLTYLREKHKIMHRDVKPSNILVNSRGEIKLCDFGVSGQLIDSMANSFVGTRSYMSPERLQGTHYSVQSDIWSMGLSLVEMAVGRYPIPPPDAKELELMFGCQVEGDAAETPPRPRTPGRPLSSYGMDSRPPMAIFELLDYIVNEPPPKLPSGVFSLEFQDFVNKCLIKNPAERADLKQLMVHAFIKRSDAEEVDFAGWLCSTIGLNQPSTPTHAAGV
Experimental: as §1

PAK2(h) = target: T4, PAK2(h) (Homo sapiens, UniProt Q13177); experiment: KinaseProfiler panel: PAK2(h)
T4 construct: purchased Merck-Millipore (KinaseProfiler panel service)
T4 sequence (Q13177 whole entry): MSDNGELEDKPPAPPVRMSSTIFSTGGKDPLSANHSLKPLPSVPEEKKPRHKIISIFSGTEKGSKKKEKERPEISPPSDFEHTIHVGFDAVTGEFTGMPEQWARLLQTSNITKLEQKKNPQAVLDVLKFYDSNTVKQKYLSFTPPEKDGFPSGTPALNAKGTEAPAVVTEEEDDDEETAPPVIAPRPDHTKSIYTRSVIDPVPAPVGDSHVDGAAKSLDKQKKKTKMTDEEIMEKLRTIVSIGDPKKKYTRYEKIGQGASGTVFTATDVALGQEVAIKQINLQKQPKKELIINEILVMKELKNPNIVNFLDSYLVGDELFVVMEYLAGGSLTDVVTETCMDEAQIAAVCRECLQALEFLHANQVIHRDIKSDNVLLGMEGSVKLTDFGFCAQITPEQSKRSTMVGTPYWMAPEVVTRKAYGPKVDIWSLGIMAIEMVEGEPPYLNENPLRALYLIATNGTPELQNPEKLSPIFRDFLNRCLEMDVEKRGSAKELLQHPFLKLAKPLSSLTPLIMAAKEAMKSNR
Experimental: as §1

PAK4(h) = target: T5, PAK4(h) (Homo sapiens, UniProt O96013); experiment: KinaseProfiler panel: PAK4(h)
T5 construct: purchased Merck-Millipore (KinaseProfiler panel service)
Experimental: as §1

Plk3(h) = target: T6, Plk3(h) (Homo sapiens, UniProt Q9H4B4); experiment: KinaseProfiler panel: Plk3(h)
T6 construct: purchased Merck-Millipore (KinaseProfiler panel service)
T6 sequence (Q9H4B4 whole entry): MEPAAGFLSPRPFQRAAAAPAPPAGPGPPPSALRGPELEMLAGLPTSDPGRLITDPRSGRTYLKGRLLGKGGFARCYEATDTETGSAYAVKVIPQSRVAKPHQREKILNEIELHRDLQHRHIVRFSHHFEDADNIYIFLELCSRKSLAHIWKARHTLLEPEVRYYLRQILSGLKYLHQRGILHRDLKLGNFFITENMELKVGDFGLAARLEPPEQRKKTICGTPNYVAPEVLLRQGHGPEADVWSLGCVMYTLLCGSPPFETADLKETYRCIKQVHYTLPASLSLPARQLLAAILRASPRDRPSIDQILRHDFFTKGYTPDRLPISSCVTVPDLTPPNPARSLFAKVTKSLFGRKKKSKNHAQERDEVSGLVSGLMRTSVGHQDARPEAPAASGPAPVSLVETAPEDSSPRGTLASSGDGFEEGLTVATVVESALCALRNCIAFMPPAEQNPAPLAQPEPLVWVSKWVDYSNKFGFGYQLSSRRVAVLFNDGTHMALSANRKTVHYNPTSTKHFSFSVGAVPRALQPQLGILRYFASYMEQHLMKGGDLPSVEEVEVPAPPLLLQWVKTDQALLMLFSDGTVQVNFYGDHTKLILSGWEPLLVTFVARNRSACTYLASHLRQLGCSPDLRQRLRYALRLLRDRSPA
Experimental: as §1

ROCK-I(h) = target: T7, ROCK-I(h) (Homo sapiens, UniProt Q13464); experiment: KinaseProfiler panel: ROCK-I(h)
T7 construct: purchased Merck-Millipore (KinaseProfiler panel service)
T7 sequence (Q13464 whole entry): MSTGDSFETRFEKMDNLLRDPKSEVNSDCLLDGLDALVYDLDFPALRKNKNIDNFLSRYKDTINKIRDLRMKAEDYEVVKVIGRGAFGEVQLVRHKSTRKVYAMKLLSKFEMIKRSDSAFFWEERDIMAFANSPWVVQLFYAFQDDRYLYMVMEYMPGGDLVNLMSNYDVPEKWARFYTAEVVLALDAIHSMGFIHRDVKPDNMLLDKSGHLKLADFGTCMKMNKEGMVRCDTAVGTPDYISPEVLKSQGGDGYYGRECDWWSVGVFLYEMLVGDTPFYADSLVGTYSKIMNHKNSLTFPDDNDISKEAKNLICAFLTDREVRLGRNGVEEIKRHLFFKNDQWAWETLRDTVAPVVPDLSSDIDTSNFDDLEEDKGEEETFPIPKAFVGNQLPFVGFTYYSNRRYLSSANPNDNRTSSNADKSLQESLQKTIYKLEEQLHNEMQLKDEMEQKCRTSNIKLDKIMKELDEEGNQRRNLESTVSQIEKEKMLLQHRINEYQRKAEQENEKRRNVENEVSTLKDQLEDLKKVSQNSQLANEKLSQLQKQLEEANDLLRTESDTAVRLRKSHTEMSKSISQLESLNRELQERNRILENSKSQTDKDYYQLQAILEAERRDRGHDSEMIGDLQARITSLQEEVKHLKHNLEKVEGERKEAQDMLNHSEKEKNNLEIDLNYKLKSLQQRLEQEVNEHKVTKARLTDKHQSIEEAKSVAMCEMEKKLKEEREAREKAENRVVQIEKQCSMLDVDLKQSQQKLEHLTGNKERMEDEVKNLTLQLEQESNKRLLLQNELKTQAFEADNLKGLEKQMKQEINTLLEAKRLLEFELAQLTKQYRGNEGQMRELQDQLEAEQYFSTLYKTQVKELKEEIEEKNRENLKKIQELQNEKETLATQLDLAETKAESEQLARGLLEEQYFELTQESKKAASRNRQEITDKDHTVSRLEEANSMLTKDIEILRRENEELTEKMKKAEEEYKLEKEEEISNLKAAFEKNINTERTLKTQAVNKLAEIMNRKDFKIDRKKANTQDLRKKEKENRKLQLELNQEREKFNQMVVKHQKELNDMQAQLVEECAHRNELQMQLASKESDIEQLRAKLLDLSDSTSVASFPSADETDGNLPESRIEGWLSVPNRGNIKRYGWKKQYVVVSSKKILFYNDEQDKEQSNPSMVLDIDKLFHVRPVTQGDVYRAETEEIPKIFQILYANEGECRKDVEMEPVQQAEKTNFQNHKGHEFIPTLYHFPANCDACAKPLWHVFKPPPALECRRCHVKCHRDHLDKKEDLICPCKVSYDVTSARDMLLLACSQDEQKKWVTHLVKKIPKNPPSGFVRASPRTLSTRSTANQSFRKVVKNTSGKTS
Experimental: as §1

TrkC(h) = target: T8, TrkC(h) (Homo sapiens, UniProt Q16288); experiment: KinaseProfiler panel: TrkC(h)
T8 construct: purchased Merck-Millipore (KinaseProfiler panel service)
Experimental: as §1

[1] = target: T9, PI3 Kinase (p110a(E542K)/p85a)(h) (Homo sapiens, UniProt P42336, E542K); experiment: KinaseProfiler panel: PI3 Kinase (p110a(E542K)/p85a)(h)
T9 construct: purchased Merck-Millipore (KinaseProfiler panel service)
Experimental: as §1

Measured: activity at 5 µM

T1 sequence (P10721 26-976): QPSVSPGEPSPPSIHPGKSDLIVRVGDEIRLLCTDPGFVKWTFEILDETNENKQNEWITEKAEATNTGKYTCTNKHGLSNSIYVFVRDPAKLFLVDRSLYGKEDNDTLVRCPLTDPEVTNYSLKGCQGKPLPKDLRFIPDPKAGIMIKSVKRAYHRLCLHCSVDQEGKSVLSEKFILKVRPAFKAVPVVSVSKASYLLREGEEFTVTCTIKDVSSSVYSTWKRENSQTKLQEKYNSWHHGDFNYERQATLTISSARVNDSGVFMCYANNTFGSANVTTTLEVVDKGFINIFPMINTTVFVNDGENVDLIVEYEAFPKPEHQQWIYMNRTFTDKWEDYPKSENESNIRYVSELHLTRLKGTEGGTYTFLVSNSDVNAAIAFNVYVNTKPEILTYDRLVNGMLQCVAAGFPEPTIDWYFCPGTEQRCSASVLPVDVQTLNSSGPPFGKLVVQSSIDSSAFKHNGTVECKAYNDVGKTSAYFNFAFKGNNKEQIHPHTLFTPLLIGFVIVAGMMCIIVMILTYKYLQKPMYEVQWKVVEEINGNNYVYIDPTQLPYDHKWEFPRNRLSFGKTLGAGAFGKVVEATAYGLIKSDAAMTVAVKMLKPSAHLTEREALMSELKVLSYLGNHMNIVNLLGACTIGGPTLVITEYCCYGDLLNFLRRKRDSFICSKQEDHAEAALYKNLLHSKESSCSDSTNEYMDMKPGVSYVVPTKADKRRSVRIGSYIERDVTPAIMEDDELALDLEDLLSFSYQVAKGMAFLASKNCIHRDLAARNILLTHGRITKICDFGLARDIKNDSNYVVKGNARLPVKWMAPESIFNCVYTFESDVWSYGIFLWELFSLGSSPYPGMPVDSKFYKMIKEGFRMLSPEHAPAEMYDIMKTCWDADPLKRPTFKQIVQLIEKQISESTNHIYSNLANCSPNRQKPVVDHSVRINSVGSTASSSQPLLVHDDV

CC(C)(C)c1nc(-c2cccc(NS(=O)(=O)c3c(F)cccc3F)c2F)c(-c2ccnc(Nc3ccccc3)n2)s1 [Compound 1, N-(3-(2-(tert-butyl)-5-(2-(phenylamino)pyrimidin-4-yl)thiazol-4-yl)-2-fluorophenyl)-2,6-difluorobenzenesulfonamide]
≥ 50%: all assays above
